We go through eleven molecules from ChEMBL document CHEMBL1201862, “PubChem BioAssay data set” (2004).

Among the test systems are OVCAR-8; SF-268; HOP-62; SW-620; SF-539; SNB-75; OVCAR-3; SK-MEL-2; SR; CCRF-CEM; EKVX; HT-29; NCI-H23; HCT-15; UACC-257; Malme-3M; SK-OV-3; HOP-92; IGROV-1.
What all share (assay): DTP human tumour cell line panel, 48 h

Molecules are shown by their SMILES.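 Briefly, cells in 96-well plates were exposed to five compound concentrations for 48 h, and endpoints were estimated by linear interpolation. GI50 is the concentration that inhibits growth by half.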 Active and inactive are the calls of the source. Rule as the data show it: active = GI50 up to about 1.1 µM and inactive = higher. Some results are limits rather than exact numbers.

With `Cc1nc2c(nc1C)C(=O)c1cc(O)ccc1C2=O`, the GI50 in the assay with OVCAR-8 was 53.2 µM (inactive); in the assay on SF-268 it was 74.3 µM (inactive); in the assay with HOP-62, 69.5 µM (inactive); with SW-620 it was 61.4 µM (inactive); with SF-539, > 81.1 µM (inactive); in the assay with SNB-75, > 100 µM (inactive). The GI50 in the assay on OVCAR-3 was 29.3 µM (inactive); with SK-MEL-2, 55.6 µM (inactive); with SR, 51.1 µM (inactive); in the assay with CCRF-CEM, 48.9 µM (inactive); in the assay on EKVX, > 100 µM (inactive); in the assay on HT-29 it was 35.2 µM (inactive). The GI50 in the assay on NCI-H23 is > 100 µM (inactive); in the assay with HCT-15 it was 36.9 µM; in the assay on UACC-257, > 54.6 µM (inactive); with Malme-3M, 20.5 µM (inactive); with SK-OV-3 it was > 100 µM (inactive); in the assay with HOP-92 it was > 100 µM (inactive). The GI50 in the assay on IGROV-1 was 68.9 µM (inactive).

Regarding `COc1cccc2c1CCc1ccccc1CC2=O`, the GI50 in the assay with OVCAR-8, with SF-268, in the assay on SW-620, in the assay on SF-539, with SNB-75 and in the assay with OVCAR-3 was > 100 µM (inactive) each time. Further, the GI50 in the assay with SK-MEL-2, in the assay on SR, in the assay with CCRF-CEM, with EKVX, with HT-29 and in the assay on NCI-H23 was > 100 µM (inactive) each time. Moreover, the GI50 is over 100 µM in the assay on HCT-15; > 100 µM (inactive) with UACC-257; > 100 µM (inactive) with Malme-3M; > 100 µM (inactive) in the assay on SK-OV-3; > 100 µM (inactive) with HOP-92; > 100 µM (inactive) in the assay on IGROV-1.

Consider `CSC1=C(c2ccc(Cl)cc2)SC(N2CCCCC2)N1c1ccc([N+](=O)[O-])cc1` (configuration not stated), for which the GI50 is 32.1 µM (inactive) in the assay with OVCAR-8; 41.3 µM (inactive) with SF-268; 20 µM (inactive) in the assay on HOP-62; 38.7 µM (inactive) in the assay with SW-620; 21.3 µM (inactive) with SF-539; 26.2 µM (inactive) in the assay with SNB-75. Moreover, the GI50 is 21.8 µM (inactive) in the assay with OVCAR-3; 20.5 µM (inactive) in the assay with SK-MEL-2; 31.3 µM (inactive) in the assay on SR; 38.4 µM (inactive) in the assay on CCRF-CEM; 40.6 µM (inactive) with EKVX; 30.6 µM (inactive) in the assay with HT-29. Further, the GI50 in the assay on NCI-H23 is 23 µM (inactive); with HCT-15 it was 26.1 µM; in the assay with UACC-257 it was 24.8 µM (inactive); in the assay on Malme-3M, 45.2 µM (inactive); in the assay on SK-OV-3 it was 30.9 µM (inactive); with HOP-92, 26.7 µM (inactive). Further, the GI50 in the assay on IGROV-1 is 29.8 µM (inactive).

With `Oc1cc(CN2CCOCCOCCOCCOCC2)c(O)cc1CN1CCOCCOCCOCCOCC1`, the GI50 is 40.5 µM (inactive) in the assay with OVCAR-8; > 56.5 µM (inactive) with SF-268; > 100 µM (inactive) in the assay with HOP-62; 24.4 µM (inactive) in the assay with SW-620; > 100 µM (inactive) with SF-539; > 78.7 µM (inactive) in the assay on SNB-75. Moreover, the GI50 in the assay on OVCAR-3 was 61.8 µM (inactive); with SK-MEL-2, > 50.7 µM (inactive); with SR, 20.3 µM (inactive); with CCRF-CEM it was 18.6 µM (inactive); in the assay on EKVX, > 100 µM (inactive); with HT-29, > 47.2 µM (inactive). Moreover, the GI50 in the assay with NCI-H23 is > 78.5 µM (inactive); in the assay with HCT-15, 34.9 µM; with UACC-257, > 100 µM (inactive); with Malme-3M, > 10 µM (inactive); with SK-OV-3, > 100 µM (inactive); with HOP-92 it was 21.2 µM (inactive). Besides, in the assay on IGROV-1, the GI50 was > 78 µM (inactive).

As for `COC(=O)C1(C(=O)OC)CC(=O)c2cc3c(cc2-c2c(cc(OC)c(OC)c2OC)C1)OCO3`, the GI50 was 139 µM (inactive) in the assay with OVCAR-8; > 211 µM (inactive) with SF-268; > 211 µM (inactive) with HOP-62; > 211 µM (inactive) in the assay on SW-620; > 211 µM (inactive) in the assay with SF-539; 98.2 µM (inactive) with OVCAR-3. In addition, the GI50 with SK-MEL-2 is > 211 µM (inactive); in the assay on SR it was 70.3 µM (inactive); with CCRF-CEM it was 173 µM (inactive); in the assay on EKVX, > 211 µM (inactive); with HT-29, > 211 µM (inactive); in the assay on NCI-H23, > 211 µM (inactive). Moreover, the GI50 in the assay with HCT-15 was 204 µM; in the assay with UACC-257, 139 µM (inactive); in the assay on Malme-3M it was > 211 µM (inactive); in the assay on SK-OV-3 it was > 211 µM (inactive); in the assay with HOP-92 it was 26.8 µM (inactive); in the assay with IGROV-1 it was > 211 µM (inactive).

In the case of `CN(C)c1nc(N(C)C)n2nc(-c3ccccc3[N+](=O)[O-])nc2n1`, the GI50 in the assay on OVCAR-8 is > 100 µM (inactive); in the assay with SF-268, > 100 µM (inactive); with HOP-62, > 100 µM (inactive); in the assay with SW-620 it was 10.1 µM (inactive); with SF-539, 33 µM (inactive); in the assay with SNB-75 it was > 100 µM (inactive). Further, the GI50 with OVCAR-3, in the assay on SK-MEL-2, in the assay with SR, with CCRF-CEM, with EKVX and in the assay on HT-29 was > 100 µM (inactive) in each case. For the same molecule, the GI50 in the assay with NCI-H23 is > 100 µM (inactive); in the assay on HCT-15, 16.3 µM; in the assay with UACC-257 it was > 100 µM (inactive); with Malme-3M it was > 100 µM (inactive); in the assay on SK-OV-3, > 100 µM (inactive); in the assay on HOP-92, > 100 µM (inactive). The GI50 in the assay with IGROV-1 is > 100 µM (inactive).

Consider `C[Si](C)(C)/C=C/CCC(C=O)(CCCl)c1ccccc1` (configuration not stated), for which the GI50 was 27.7 µM (inactive) with OVCAR-8; 31.7 µM (inactive) in the assay with SF-268; 28.6 µM (inactive) in the assay with SW-620; 31.2 µM (inactive) in the assay with SF-539; 35.2 µM (inactive) in the assay on SNB-75; 16.7 µM (inactive) in the assay with OVCAR-3. Also, the GI50 in the assay with SK-MEL-2 was 14.8 µM (inactive); with SR it was > 10 µM (inactive); in the assay on CCRF-CEM, 29.6 µM (inactive); with EKVX it was 26 µM (inactive); in the assay with HT-29, 14.6 µM (inactive); in the assay with NCI-H23 it was 21.8 µM (inactive). Further, the GI50 in the assay with HCT-15 is 19.5 µM; with UACC-257, 26.2 µM (inactive); in the assay on Malme-3M, 17.6 µM (inactive); in the assay with SK-OV-3 it was 56.9 µM (inactive); in the assay with HOP-92 it was 28.1 µM (inactive); in the assay with IGROV-1, 41.1 µM (inactive).

With `CC1=Nc2ccccc2C1C(Cc1ccccc1N)c1c(C)[nH]c2ccccc12` (configuration not stated), the GI50 was 16.6 µM (inactive) in the assay with OVCAR-8; 8.17 µM (inactive) in the assay with SF-268; 14.4 µM (inactive) in the assay with HOP-62; 15.5 µM (inactive) in the assay with SW-620; 17.6 µM (inactive) in the assay on SF-539; 17.5 µM (inactive) in the assay on SNB-75. In addition, the GI50 was 15.1 µM (inactive) with OVCAR-3; 5.92 µM (inactive) in the assay on SK-MEL-2; 21.9 µM (inactive) in the assay on SR; 17.7 µM (inactive) with CCRF-CEM; 20.5 µM (inactive) in the assay on EKVX; 17.8 µM (inactive) with HT-29. Further, the GI50 with NCI-H23 is 18.2 µM (inactive); with HCT-15 it was 16.4 µM; in the assay with UACC-257 it was 17.8 µM (inactive); with Malme-3M, 17.3 µM (inactive); in the assay on SK-OV-3 it was 24.6 µM (inactive); in the assay with HOP-92, 12.3 µM (inactive). Besides, the GI50 in the assay on IGROV-1 was 17.4 µM (inactive).

As to `CCc1cccc(C(C)C)c1NC(=O)C(=O)C(Cc1nc2ccccc2nc1O)C(=O)OC` (configuration not stated), the GI50 was > 100 µM (inactive) with OVCAR-8; 67.9 µM (inactive) in the assay on SF-268; > 100 µM (inactive) with HOP-62; > 100 µM (inactive) in the assay with SF-539; 65.6 µM (inactive) with SNB-75; > 100 µM (inactive) with OVCAR-3. Besides, the GI50 with SK-MEL-2 was > 100 µM (inactive); in the assay with SR it was 38.5 µM (inactive); in the assay with CCRF-CEM it was 60.8 µM (inactive); in the assay with EKVX it was 5.19 µM (inactive); in the assay with HT-29, 95.3 µM (inactive); in the assay with NCI-H23 it was > 100 µM (inactive). Besides, the 50% growth inhibitory concentration (GI50) was over 100 µM with HCT-15; > 100 µM (inactive) in the assay on UACC-257; > 100 µM (inactive) with Malme-3M; > 100 µM (inactive) in the assay with SK-OV-3; > 100 µM (inactive) in the assay with HOP-92; > 100 µM (inactive) with IGROV-1.

Regarding `CCC(=O)N(O)C(C)(C)C`, the GI50 with OVCAR-8 was > 100 µM (inactive); in the assay on SF-268, > 100 µM (inactive); with HOP-62, > 100 µM (inactive); in the assay with SW-620 it was > 100 µM (inactive); in the assay on SF-539, > 100 µM (inactive); with SNB-75, 92.3 µM (inactive). Besides, the GI50 in the assay with OVCAR-3 was > 100 µM (inactive); with SR, > 100 µM (inactive); with CCRF-CEM it was > 100 µM (inactive); in the assay on HT-29, > 100 µM (inactive); with NCI-H23, > 100 µM (inactive); with HCT-15, over 100 µM. Besides, the GI50 in the assay on UACC-257, in the assay with Malme-3M, in the assay on SK-OV-3, in the assay with HOP-92 and in the assay with IGROV-1 was > 100 µM (inactive) throughout.

In the case of `CCOC(=O)C(CC/C=C\c1ccccc1)N1CCC[C@H]1C(=O)OC` (some centres not stated), the GI50 in the assay on OVCAR-8, in the assay on SF-268, with HOP-62, in the assay with SW-620, in the assay with SF-539 and in the assay with SNB-75 was > 100 µM (inactive) in each case. Moreover, the GI50 in the assay with OVCAR-3 is > 100 µM (inactive); in the assay on SK-MEL-2, > 100 µM (inactive); in the assay with SR, 40 µM (inactive); in the assay on CCRF-CEM, 94.8 µM (inactive); in the assay with EKVX, > 100 µM (inactive); with HT-29, > 100 µM (inactive). The GI50 with NCI-H23, in the assay on UACC-257, in the assay on Malme-3M, in the assay on SK-OV-3, in the assay on HOP-92 and in the assay on IGROV-1 was > 100 µM (inactive) in each case.
